Results from patent US6613903B2, “Modulators of protein tyrosine phosphatases (PTPases)” (Novo Nordisk A/S, priority 2000, dated 2003).

Target: T1, truncated form of PTP1 B (corresponding to the first 321 amino acids) (Homo sapiens, UniProt P18031)
T1 construct: truncated form of PTP1 B (corresponding to the first 321 amino acids); made in house; host or cells: E. coli
T1 sequence (P18031 1-321): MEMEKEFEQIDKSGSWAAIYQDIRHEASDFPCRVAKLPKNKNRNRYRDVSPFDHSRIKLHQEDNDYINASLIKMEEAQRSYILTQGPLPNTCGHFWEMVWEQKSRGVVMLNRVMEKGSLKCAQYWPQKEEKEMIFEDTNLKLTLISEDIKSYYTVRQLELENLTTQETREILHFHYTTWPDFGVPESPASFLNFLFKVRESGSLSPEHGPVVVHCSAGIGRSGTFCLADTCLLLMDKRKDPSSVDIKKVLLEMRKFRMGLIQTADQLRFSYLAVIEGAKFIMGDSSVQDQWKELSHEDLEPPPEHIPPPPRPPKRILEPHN
Assay: Inhibition of PTP1B, p-nitrophenyl phosphate as substrate, enzyme kinetics
Assay type: biochemical
Settings: truncated PTP1B expressed in E. coli; substrate p-nitrophenyl phosphate 0.16 to 10 mM; sodium acetate pH 5.5; 25° C. for 60 minutes; absorbance at 405 nm
Experimental: The compounds are evaluated for biological activity with a truncated form of PTP1 B (corresponding to the first 321 amino acids), which was expressed in E. coli and purified to apparent homogeneity using published procedures well-known to those skilled in the art. The enzyme reactions are carried out using standard conditions essentially as described by Burke et al. (Biochemistry 35; 15989-15996 (1996)). The assay conditions are as follows. Appropriate concentrations of the compounds of the invention are added to the reaction mixtures containing different concentrations of the substrate, p-nitrophenyl phosphate (range: 0.16 to 10 mM—final assay concentration). The buffer used was 100 mM sodium acetate pH 5.5, 50 mM sodium chloride, 0.1% (w/v) bovine serum albumin and 5 mM dithiothreitol (total volume […]). The reaction was started by addition of the enzyme and carried out in microtiter plates at 25° C. for 60 minutes. The reactions are stopped by addition of NaOH. The enzyme activity was determined by measurement of the absorbance at 405 nm with appropriate corrections for absorbance at 405 nm of the compounds and p-nitrophenyl phosphate. The data are analyzed using nonlinear regression fit to classical Michaelis Menten enzyme kinetic models. Inhibition is expressed as Ki values in μM.

SMILES | Ki
O=C(O)C(=O)Nc1sc2c(c1C(=O)O)CCNC2CNC(=O)c1ccccc1 (centres unmarked) [Example 1, 7-(Benzoylamino-methyl)-2-(oxalyl-amino)-4,5,6,7-tetrahydro-thieno[2,3-c]pyridine-3-carboxylic acid] | 0.49 µM
O=C(O)C(=O)Nc1sc2c(c1C(=O)O)CCNC2CNC(=O)c1ccc(NC(=O)c2ccccc2)cc1 (centres unmarked) [Example 6, 7-((4-Benzoylamino-benzoylamino)methyl)-2-(oxalyl-amino)-4,5,6,7-tetrahydro-thieno[2,3-c]pyridine-3-carboxylic acid] | 0.33 µM
O=C(CCc1ccc(-c2ccccc2)cc1)NCC1NCCc2c1sc(NC(=O)C(=O)O)c2C(=O)O (centres unmarked) [Example 9, 7-((3-Biphenyl-4-yl-propionylamino)methyl)-2-(oxalyl-amino)-4,5,6,7-tetrahydro-thieno[2,3-c]-pyridine-3-carboxylic acid] | 0.062 µM
O=C(O)C(=O)Nc1sc2c(c1C(=O)O)CCNC2CNC(=O)c1ccc(Cc2ccccc2)cc1 (centres unmarked) [Example 11, 7-((4-Benzyl-benzoylamino)methyl)-2-(oxalyl-amino)-4,5,6,7-tetrahydro-thieno[2,3-c]pyridine-3-carboxylic acid] | 0.14 µM
O=C(O)C(=O)Nc1sc2c(c1C(=O)O)CCNC2CNC(=O)c1cccc2ccccc12 (centres unmarked) [Example 12, 7-(((Naphthalene-1-carbonyl)amino)methyl)-2-(oxalyl-amino)-4,5,6,7-tetrahydro-thieno[2,3-c]pyridine-3-carboxylic acid] | 0.12 µM
O=C(CCc1ccc2ccccc2c1)NCC1NCCc2c1sc(NC(=O)C(=O)O)c2C(=O)O (centres unmarked) [Example 13, 7-((3-Naphthalen-2-yl-propionylamino)methyl)-2-(oxalyl-amino)-4,5,6,7-tetrahydro-thieno[2,3-c]pyridine-3-carboxylic acid] | 0.07 µM
O=C(O)C(=O)Nc1sc2c(c1C(=O)O)CCNC2CNC(=O)c1c(O)ccc2ccccc12 (centres unmarked) [Example 14, 7-(((2-Hydroxy-naphthalene-1-carbonyl)amino)methyl)-2-(oxalyl-amino)-4,5,6,7-tetrahydro-thieno[2,3-c]pyridine-3-carboxylic acid] | 0.07 µM
CCOc1cccc2cc(C(=O)NC[C@@H]3NCCc4c3sc(NC(=O)C(=O)O)c4C(=O)O)oc12 [Example 20, 7-(S)-(((7-Ethoxy-benzofuran-2-carbonyl)amino)methyl)-2-(oxalyl-amino)-4,5,6,7-tetrahydro-thieno[2,3-c]pyridine-3-carboxylic acid] | 0.11 µM
CC(=O)Nc1ccc(S(=O)(=O)NC[C@@H]2NCCc3c2sc(NC(=O)C(=O)O)c3C(=O)O)cc1 [Example 22, 7-(S)-((4-Acetylamino-benzenesulfonylamino)methyl)-2-(oxalyl-amino)-4,5,6,7-tetrahydro-thieno[2,3-c]pyridine-3-carboxylic acid] | 0.091 µM
O=C(O)C(=O)Nc1sc2c(c1C(=O)O)CCN[C@H]2CNC(=O)c1ccc2nc[nH]c2c1 [Example 24, 7-(S)-(((3H-Benzoimidazole-5-carbonyl)amino)methyl)-2-(oxalyl-amino)-4,5,6,7-tetrahydro-thieno[2,3-c]pyridine-3-carboxylic acid] | 0.64 µM
O=C(O)C(=O)Nc1sc2c(c1C(=O)O)CCN[C@H]2CNC(=O)c1cc2cc(O)ccc2[nH]1 [Example 25, 7-(S)-(((5-Hydroxy-1H-indole-2-carbonyl)amino)methyl)-2-(oxalyl-amino)-4,5,6,7-tetrahydro-thieno[2,3-c]pyridine-3-carboxylic acid] | 3.2 µM
O=C(O)C(=O)Nc1sc2c(c1C(=O)O)CCN[C@@H]2CNC(=O)c1cc2cc(O)ccc2[nH]1 [Example 26, 7-(R)-(((5-Hydroxy-1H-indole-2-carbonyl)amino)methyl)-2-(oxalyl-amino)-4,5,6,7-tetrahydro-thieno[2,3-c]pyridine-3-carboxylic acid] | 2.6 µM
O=C(O)C(=O)Nc1sc2c(c1C(=O)O)CCN[C@@H]2CNC(=O)c1cn(Cc2ccccc2)c2ccccc12 [Example 27, 7-(R)-(((1-Benzyl-1H-indole-3-carbonyl)amino)methyl)-2-(oxalyl-amino)-4,5,6,7-tetrahydro-thieno[2,3-c]pyridine-3-carboxylic acid] | 2.1 µM
O=C(O)C(=O)Nc1sc2c(c1C(=O)O)CCN[C@H]2CNCc1ccc(Oc2ccccc2)cc1 [Example 28, 2-(Oxalyl-amino)-7-(S)-((4-phenoxy-benzylamino)methyl)-4,5,6,7-tetrahydro-thieno[2,3-c]pyridine-3-carboxylic acid] | 0.058 µM
O=C(NC[C@@H]1NCCc2c1sc(NC(=O)C(=O)O)c2C(=O)O)Nc1ccc(Oc2ccccc2)cc1 [Example 29, 2-(Oxalyl-amino)-7-(S)-(3-(4-phenoxy-phenyl)ureidomethyl)-4,5,6,7-tetrahydro-thieno[2,3-c]pyridine-3-carboxylic acid] | 0.031 µM
O=C(O)C(=O)Nc1sc2c(c1C(=O)O)CCNC2CNC(=O)c1cn(Cc2ccccc2)c2ccccc12 (centres unmarked) [Example 30, 7-(((1-Benzyl-1H-indole-3-carbonyl)amino)methyl)-2-(oxalyl-amino)-4,5,6,7-tetrahydro-thieno[2,3-c]pyridine-3-carboxylic acid] | 0.07 µM
CC(=O)NCC1NCCc2c1sc(NC(=O)C(=O)O)c2C(=O)O (centres unmarked) [Example 31, 7-(Acetylamino-methyl)-2-(oxalyl-amino)-4,5,6,7-tetrahydro-thieno[2,3-c]pyridine-3-carboxylic acid] | 1.1 µM
CC(C)(N)CCCC(=O)NCC1NCCc2c1sc(NC(=O)C(=O)O)c2C(=O)O (centres unmarked) [Example 32, 7-((5-Amino-5-methyl-hexanoylamino)methyl)-2-(oxalyl-amino)-4,5,6,7-tetrahydro-thieno[2,3-c]pyridine-3-carboxylic acid] | 0.078 µM
O=C(O)C(=O)Nc1sc2c(c1C(=O)O)CCN[C@H]2CNC(=O)c1cc2cc(F)ccc2[nH]1 [Example 33, 7-(S)-(((5-Fluoro-1H-indole-2-carbonyl)amino)methyl)-2-(oxalyl-amino)-4,5,6,7-tetrahydro-thieno[2,3-c]pyridine-3-carboxylic acid] | 0.018 µM
CC(=O)OCOC(=O)Oc1ccc2[nH]c(C(=O)NC[C@H]3c4sc(NC(=O)C(=O)O)c(C(=O)O)c4CCN3C(=O)OCOC(C)=O)cc2c1 [Example 35, 7-(S)-(((5-Acetoxymethoxycarbonyloxy-1H-indole-2-carbonyl)amino)methyl)-2-(oxalyl-amino)-4,7-dihydro-5H-thieno[2,3-c]pyridine-3,6-dicarboxylic acid 6-acetoxymethyl ester] | 0.032 µM
O=C(O)C(=O)Nc1sc2c(c1C(=O)O)CCN[C@H]2CNC(=O)c1ccc(-c2cccc(-c3ccccc3)c2)cc1 [Example 36] | 0.042 µM
O=C(O)C(=O)Nc1sc2c(c1C(=O)O)CCN[C@H]2CNC(=O)c1cc2ccccc2[nH]1 [Example 37, 7-(S)-(((1H-Indole-2-carbonyl)amino)methyl)-2-(oxalyl-amino)-4,5,6,7-tetrahydro-thieno[2,3-c]pyridine-3-carboxylic acid] | 0.031 µM
CCOC(=O)C(=O)Nc1sc2c(c1C(=O)O)CCNC2CNC(=O)c1cc2cc(O)ccc2[nH]1 (centres unmarked) [Example 38, 2-(Ethoxyoxalyl-amino)-7-(((5-hydroxy-1H-indole-2-carbonyl)amino)methyl)-4,5,6,7-tetrahydro-thieno[2,3-c]pyridine-3-carboxylic acid] | 0.063 µM
CCOC(=O)c1c(NC(=O)C(=O)OCC(C)(C)C)sc2c1CCNC2CNC(=O)c1cc2cc(O)ccc2[nH]1 (centres unmarked) [Example 40, 2-((2,2-Dimethyl-propoxyoxalyl)amino)-7-(((5-hydroxy-1H-indole-2-carbonyl)-amino)methyl)-4,5,6,7-tetrahydro-thieno[2,3-c]pyridine-3-carboxylic acid ethyl ester] | 1.3 µM
CCOC(=O)c1c(NC(=O)C(=O)O)sc2c1CCNC2CNC(=O)c1cc2cc(O)ccc2[nH]1 (centres unmarked) [Example 41, 7-(((5-Hydroxy-1H-indole-2-carbonyl)amino)methyl)-2-(oxalyl-amino)-4,7-dihydro-5H-thieno[2,3-c]pyridine-3-carboxylic acid ethyl ester] | 0.9 µM
CCOC(=O)N1CCc2c(sc(NC(=O)C(=O)O)c2C(=O)O)C1CNC(=O)c1cc2cc(O)ccc2[nH]1 (centres unmarked) [Example 42, 7-(((5-Hydroxy-1H-indole-2-carbonyl)amino)methyl)-2-(oxalyl-amino)-4,7-dihydro-5H-thieno[2,3-c]pyridine-3,6-dicarboxylic acid 6-ethyl ester] | 0.12 µM
